Assays:
[1] = reported; cited from earlier work
AAG = details: reported; cited from earlier work
HSA [2] = biological target: T1, HSA (Homo sapiens, UniProt P02768); assay: percent recovery from HSA with the 96-well ACCUPRO DCC device; assay type: in vitro ADME
Description: Chemical Analysis. […] For a given sample, the peak areas of the particular drug and its internal standard are measured and a ratio of these two values is determined. The peak area ratio (PAR) of the (+) DCC-extracted sample is divided by its corresponding (−) DCC extracted sample PAR to determine a percent recovery value. This recovery value is not a % HSA bound value.
Preparation of DCC plate. Prepare a DCC filter plate with 5 mg and 10 mg bed sizes as described in Example 1 and 3.
Set-Up of Incubation Study.

HSA [3] = biological target: T1, HSA; details: 1 μM drug + 1 μM DS in HSA; 10 mg DCC bed
Description: Set-Up of Incubation Study. […] Allow samples to sit at room temperature for one hour.
DCC Extraction Procedure; Protein Precipitation Procedure; Final Sample Preparation. Performed as described in Example 1 and 3.
Chemical Analysis. The analysis of DS and the internal standard is conducted with liquid chromatography coupled to mass spectrometry with electrospray ionization. For a given sample, the peak area of the DS and the internal standard are measured and a ratio (PAR) of these two values is determined.

T1 sequence (P02768 25-609): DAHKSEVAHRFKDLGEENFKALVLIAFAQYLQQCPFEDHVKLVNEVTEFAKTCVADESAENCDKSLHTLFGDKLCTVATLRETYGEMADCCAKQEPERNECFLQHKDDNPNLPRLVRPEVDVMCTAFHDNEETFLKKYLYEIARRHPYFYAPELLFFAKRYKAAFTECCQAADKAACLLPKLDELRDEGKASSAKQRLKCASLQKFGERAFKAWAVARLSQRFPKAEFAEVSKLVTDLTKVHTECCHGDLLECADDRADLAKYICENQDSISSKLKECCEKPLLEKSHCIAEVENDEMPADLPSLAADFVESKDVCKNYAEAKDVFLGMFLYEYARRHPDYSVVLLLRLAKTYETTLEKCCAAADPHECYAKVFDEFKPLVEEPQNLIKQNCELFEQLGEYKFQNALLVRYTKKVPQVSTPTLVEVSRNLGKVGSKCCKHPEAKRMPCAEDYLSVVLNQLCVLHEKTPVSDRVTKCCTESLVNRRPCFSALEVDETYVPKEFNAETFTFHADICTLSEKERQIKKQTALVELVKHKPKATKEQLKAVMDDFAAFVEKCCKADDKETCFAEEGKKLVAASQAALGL

SMILES | plasma bound [1] | affinity to AAG / HSA (AAG) | percent recovery (relative ranking) (HSA [2]; HSA, naproxen versus ketorolac) | percent recovery from HSA (HSA [2]; drug at 1 μM, 5 mg and 10 mg DCC bed, compared with the usual concentrations (217 μM and 0.5 μM)) | DS (dansylsarcosine) PAR in final sample preparation (HSA [3])
CN(C)CCCN1c2ccccc2Sc2ccc(Cl)cc21 [Chlorpromazine] | 95-98% | high affinity to AAG and not HSA |  |  | 
O=C(c1ccccc1)c1ccc2n1CCC2C(=O)O (centres unmarked) [Ketorolac] |  |  | lower percent recovery | comparable to values obtained above | higher PAR
